Measured values as given in ChEMBL document CHEMBL3745645, “Synthesis, in vitro antitumor activity, dihydrofolate reductase inhibition, DNA intercalation and structure-activity relationship studies of 1,3,5-triazine analogues” (Bioorg Med Chem Lett, 2016).

What was measured:
M14 = assay: Cytotoxicity against human M14 cells at 10 uM after 48 hrs by SRB assay; assay type: functional; settings: M14, 48 h, read-out: GI
SN12C = assay: Cytotoxicity against human SN12C cells at 10 uM after 48 hrs by SRB assay; assay type: functional; settings: read-out: GI
CCRF-CEM [1] = assay: Cytotoxicity against human CCRF-CEM cells after 48 hrs by SRB assay; assay type: functional
[2] = Cytotoxicity against human DU145 cells at 10 uM after 48 hrs by SRB assay; assay type: functional; settings: DU-145, 48 h, read-out: GI
A549 [3] = assay: Cytotoxicity against human A549 cells at 10 uM after 48 hrs by SRB assay; assay type: functional; settings: A549, 48 h, read-out: GI
[4] = Cytotoxicity against human SF539 cells at 10 uM after 48 hrs by SRB assay; assay type: functional; settings: SF-539, 48 h, read-out: GI
SR [5] = assay: Cytotoxicity against human SR cells at 10 uM after 48 hrs by SRB assay; assay type: functional; settings: read-out: GI
A549 [6] = assay: Cytotoxicity against human A549 cells after 48 hrs by SRB assay; assay type: functional; settings: A549, 48 h, pooled result: one value given for 8 cell lines, strains, targets or settings
NCI-H522 = assay: Cytotoxicity against human NCI-H522 cells at 10 uM after 48 hrs by SRB assay; assay type: functional; settings: NCI-H522, 48 h, read-out: GI
[7] = Cytotoxicity against human SF268 cells after 48 hrs by SRB assay; assay type: functional; settings: SF-268, 48 h, pooled result: one value given for 6 cell lines, strains, targets or settings
[8] = Cytotoxicity against human DU145 cells after 48 hrs by SRB assay; assay type: functional; settings: DU-145, 48 h, read-out: LC50 (the source's name)
[9] = Cytotoxicity against human SW620 cells at 10 uM after 48 hrs by SRB assay; assay type: functional; settings: SW-620, 48 h, read-out: GI
Malme-3M = assay: Cytotoxicity against human MALME-3M cells at 10 uM after 48 hrs by SRB assay; assay type: functional; settings: read-out: GI
[10] = Cytotoxicity against human MOLT4 cells after 48 hrs by SRB assay; assay type: functional; settings: MOLT-4, 48 h, read-out: LC50 (the source's name)
[11] = Cytotoxicity against human MOLT4 cells at 10 uM after 48 hrs by SRB assay; assay type: functional; settings: MOLT-4, 48 h, read-out: GI
NCI-H322M = assay: Cytotoxicity against human NCI-H322M cells at 10 uM after 48 hrs by SRB assay; assay type: functional; settings: read-out: GI
[12] = Cytotoxicity against human SNB75 cells at 10 uM after 48 hrs by SRB assay; assay type: functional; settings: SNB-75, 48 h, read-out: GI
CCRF-CEM [13] = assay: Cytotoxicity against human CCRF-CEM cells at 10 uM after 48 hrs by SRB assay; assay type: functional; settings: read-out: GI
K562 [14] = assay: Cytotoxicity against human K562 cells after 48 hrs by SRB assay; assay type: functional; settings: K562, 48 h
786-0 [15] = assay: Cytotoxicity against human 786-0 cells after 48 hrs by SRB assay; assay type: functional; settings: 786-0, 48 h, pooled result: one value given for 8 cell lines, strains, targets or settings
[16] = Cytotoxicity against human SF268 cells at 10 uM after 48 hrs by SRB assay; assay type: functional; settings: SF-268, 48 h, read-out: GI
786-0 [17] = assay: Cytotoxicity against human 786-0 cells at 10 uM after 48 hrs by SRB assay; assay type: functional; settings: 786-0, 48 h, read-out: GI
[18] = Cytotoxicity against human LOXIMVI cells at 10 uM after 48 hrs by SRB assay; assay type: functional; settings: LOX IMVI, read-out: GI
[19] = Cytotoxicity against human LOXIMVI cells after 48 hrs by SRB assay; assay type: functional; settings: LOX IMVI, pooled result: one value given for 9 cell lines, strains, targets or settings
[20] = Cytotoxicity against human Hs 578T cells at 10 uM after 48 hrs by SRB assay; assay type: functional; settings: read-out: GI
A498 = assay: Cytotoxicity against human A498 cells at 10 uM after 48 hrs by SRB assay; assay type: functional; settings: A498, 48 h, read-out: GI
Calf thymus DNA = assay: Binding affinity to calf thymus DNA assessed as melting temperature by spectrophotometric analysis (reference value: 60 degC); assay type: nucleic-acid assay; settings: Bos taurus
[21] = Cytotoxicity against human COLO205 cells at 10 uM after 48 hrs by SRB assay; assay type: functional; settings: COLO 205, 48 h, read-out: GI
[22] = Cytotoxicity against human OVCAR3 cells at 10 uM after 48 hrs by SRB assay; assay type: functional; settings: OVCAR-3, 48 h, read-out: GI
Dihydrofolate reductase = biological target: T1, Dihydrofolate reductase (Homo sapiens, UniProt P00374); assay: Inhibition of human recombinant DHFR expressed in Escherichia coli by spectrophotometric analysis
T1 sequence (P00374 whole entry): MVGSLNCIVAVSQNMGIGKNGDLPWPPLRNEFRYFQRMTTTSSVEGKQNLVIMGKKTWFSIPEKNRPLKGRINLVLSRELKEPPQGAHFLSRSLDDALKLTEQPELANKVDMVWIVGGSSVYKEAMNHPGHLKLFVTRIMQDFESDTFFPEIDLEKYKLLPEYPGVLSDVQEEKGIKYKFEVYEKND

[23] = Cytotoxicity against human IGROV1 cells at 10 uM after 48 hrs by SRB assay; assay type: functional; settings: IGROV-1, 48 h, read-out: GI
[24] = Cytotoxicity against human SKOV3 cells at 10 uM after 48 hrs by SRB assay; assay type: functional; settings: SK-OV-3, 48 h, read-out: GI
MCF7 = assay: Cytotoxicity against human MCF7 cells after 48 hrs by SRB assay; assay type: functional; settings: MCF7, 48 h, pooled result: one value given for 6 cell lines, strains, targets or settings
[25] = Cytotoxicity against human HL-60(TB) cells after 48 hrs by SRB assay; assay type: functional; settings: HL-60, 48 h, read-out: LC50 (the source's name)
K562 [26] = assay: Cytotoxicity against human K562 cells at 10 uM after 48 hrs by SRB assay; assay type: functional; settings: K562, 48 h, read-out: GI
SR [27] = assay: Cytotoxicity against human SR cells after 48 hrs by SRB assay; assay type: functional
HT-29 = assay: Cytotoxicity against human HT-29 cells at 10 uM after 48 hrs by SRB assay; assay type: functional; settings: HT-29, 48 h, read-out: GI
NCI-H226 = assay: Cytotoxicity against human NCI-H226 cells at 10 uM after 48 hrs by SRB assay; assay type: functional; settings: NCI-H226, 48 h, read-out: GI
[28] = Cytotoxicity against human RXF393 cells at 10 uM after 48 hrs by SRB assay; assay type: functional; settings: RXF 393, 48 h, read-out: GI
[29] = Cytotoxicity against human PC3 cells after 48 hrs by SRB assay; assay type: functional; settings: PC-3, 48 h
[30] = pooled result: one value given for 6 cell lines, strains, targets or settings
[31] = pooled result: one value given for 2 cell lines, strains, targets or settings

What does the source list for `Cc1nc2ccc(Nc3nc(Cl)nc(Nc4ccc(F)cc4)n3)cc2n1Cc1ccccc1`?
inhibition of growth at 10 µM (M14): 17.7%; inhibition of growth at 10 µM (SN12C): 53.3%; LC50 (CCRF-CEM [1]): > 100 µM; GI50 (CCRF-CEM [1]; [30]): 3.34 µM; TGI (CCRF-CEM [1]; [30]): 8.68 µM; inhibition of growth at 10 µM [2]: 5.78%; inhibition of growth at 10 µM (A549 [3]): 23.8%; inhibition of growth at 10 µM [4]: 1.83%; inhibition of growth at 10 µM (SR [5]): 63.9%; GI50 (A549 [6]): 6.23 µM; LC50 (A549 [6]): 69.6 µM; TGI (A549 [6]): 20.3 µM; inhibition of growth at 10 µM (NCI-H522): 77.5%; GI50 [7]: 6.39 µM; LC50 (concentration killing 50% of cells) [7]: 43.5 µM; TGI [7]: 24.3 µM; CC50 [8]: 52.5 µM; inhibition of growth at 10 µM [9]: 17.2%; inhibition of growth at 10 µM (Malme-3M): 11.5%; CC50 [10]: > 100 µM; inhibition of growth at 10 µM [11]: 41.1%; inhibition of growth at 10 µM (NCI-H322M): 11.9%; inhibition of growth at 10 µM [12]: 4.24%; inhibition of growth at 10 µM (CCRF-CEM [13]): 77.1%; LC50 (K562 [14]): > 100 µM; GI50 (786-0 [15]): 7.49 µM; LC50 (concentration killing 50% of cells) (786-0 [15]): 55.5 µM; TGI (786-0 [15]): 30 µM; inhibition of growth at 10 µM [16]: 24.6%; inhibition of growth at 10 µM (786-0 [17]): 20.4%; inhibition of growth at 10 µM [18]: 64.8%; GI50 [19]: 5.92 µM; LC50 [19]: 53.9 µM; TGI [19]: 18.4 µM; inhibition of growth at 10 µM [20]: 11.1%; inhibition of growth at 10 µM (A498): 22.2%; Tm (Calf thymus DNA): 57 °C; inhibition of growth at 10 µM [21]: 8.82%; inhibition of growth at 10 µM [22]: 5.09%; IC50 (Dihydrofolate reductase): 0.31 µM; inhibition of growth at 10 µM [23]: 33.3%; inhibition of growth at 10 µM [24]: 2.61%; GI50 (MCF7): 4.21 µM; LC50 (concentration killing 50% of cells) (MCF7): 75.8 µM; TGI (MCF7): 11.9 µM; CC50 [25]: > 100 µM; inhibition of growth at 10 µM (K562 [26]): 63.1%; LC50 (concentration killing 50% of cells) (SR [27]): > 100 µM; inhibition of growth at 10 µM (HT-29): 15.8%; inhibition of growth at 10 µM (NCI-H226): 26.8%; inhibition of growth at 10 µM [28]: 15.4%; LC50 [29]: 52.5 µM; GI50 [29, 31]: 8.27 µM; TGI [29, 31]: 27.7 µM
